# Measurements as given in patent US11219222B2, “Topical mosquito control product” (Penta 5 USA, LLC, priority 2016, dated 2022).
# Where “and” joins values, the source holds several entries; their conditions need not be identical. Equal values may be shown once.
# Columns and labels:
# Type in all cases: in vivo
# Aedes aegypti mosquitos = test: Arm-in-cage test, protective efficacy; details: for No. probing on treated arm: 30 seconds exposure; for No. probing on treated arm / % PE: per replicate cage; for Total % PE: three cages
# Method: Additional testing was performed with the lotion formula of example 4 including: bee's wax, soybean oil, edible oil such as sunflower oil, isopropyl alcohol, cinnamon oil, cedar wood oil, citronella oil, turmeric, anise, basil oil, salt, ethyl ester, and water with the following protocols. Aedes aegypti mmosquitoes were obtained from insecticide-susceptible reference strains held at the London School of Hygiene & Tropical Medicine, UK. All mosquitoes are reared and housed under optimal environmental conditions of 25° C. ±2° C. and 80% Relative Humidity with a 12:12 hour photoperiod. Testing was carried out in a testing room maintained at […] and 80% RH with a 12:12 hour photoperiod. For each product, the same person carried out the arm-in-cage testing.
# For each product test, three batches of 50 female mosquitoes were placed in cages 30×30×30 cm inside the testing room. Before the start of each test a bare arm with gloved hand was inserted into the cage for 30 seconds to assess the biting readiness of the mosquitoes. Only cages with at least ten mosquitoes landing within 30 seconds were used in subsequent testing. The number of mosquitoes probing the untreated arm was counted at the end of the 30 second test. Following the combined fitness/control test, the product was applied onto the right arm at the WHO standard rate of 1 ml per 600 cm2 ([…] per cm2) for the Mosquito Insect Repellent and DEET, and at a rate of 2 mg per cm′ for the Sunscreen Repellent. The arm was then inserted into the cage for 30 seconds and the number of mosquitoes probing on the arm counted and recorded. The procedure was repeated with a total of three cages. This was repeated for each of the three cages and at hourly intervals until 8 hours post-application or until protection drops below 50%. Each product was tested on a separate test day.
# Protective efficacy (PE) was calculated using the following formula: PE=(Mosquitoes probing on control arm—Mosquitoes probing on treated arm)/Mosquitoes probing on control arm×100. The average probing on the control arm during testing was 16, 17 and 21 mosquitoes at the end of the 30 second exposure time, in cages used for testing the Mosquito Insect Repellent Lotion and 8% DEET respectively. The Mosquito Insect Repellent Lotion 100% protection at 0 hours, whereas the 8% DEET provided 100% protection for 1 hour after application (Table 1). The Mosquito Insect Repellent Lotion provided over 50% protection for, 3 hours, whereas 8% DEET provided over 50% protection for 6 hours.
# [1] = tested on: yellow fever mosquitoes, Aedes aegypti; test: In vitro K&D module biting bioassay, example 5 (No-Bite), No-Burn and 7% DEET; details: 4 hours post-treatment; p>0.05
# Method: The deterrent effect of the above-described compositions of example 5 (represented as NO-Bite in FIGS. 7-8) was tested in a controlled environment. In vitro laboratory tests were conducted and measured and compared to DEET and nontreated control groups for yellow fever mosquitos, Aedes aegypti. The repellency of the formulations were compared to a DEET standard, and a non-treated control against yellow fever mosquitoes, Aedes aegypti. The examples were performed in a temperature-controlled laboratory following techniques as disclosed in Klun, J. A., M. A. Kramer, A. Zhang, S. Wang, and M. Debboun. 2008. A quantitative in vitro assay for mosquito deterrent activity without human blood cells. J Am. Mosq. Contr. Assoc. 24:508-512. […] Five colony-reared female Aedes aegypti were aspirated into each chamber (FIG. 1). […] The variance in biting count means by treatment and time intervals was statistically analyzed with SAS Proc ANOVA and statistically tested for significant differences with Tukey's Studentized Range test at p<0.05 and charted with 95% Confidence Intervals (C.I.). Average % repellency was calculated with the following formula and charted by treatment and time interval: (Control Avg. Biting Count—Treatment Avg. Biting Count)÷Control Avg. […]
# [2] = tested on: yellow fever mosquitos, Aedes aegypti; test: In vitro K & D module biting bioassay, compositions of examples 1-3 vs DEET
# Method: The deterrent effect of the above-described compositions of examples 1 -3 was tested in a controlled environment. In vitro laboratory tests were conducted and measured and compared to DEET and nontreated control groups for yellow fever mosquitos, Aedes aegypti. Bioassays were conducted in nine six-chambered Plexiglas K & D modules stocked with female Aedes aegypti mosquitos as shown in FIGS. 1-3. Five female mosquitos were aspirated into each of the six chambers of the nine modules. Repellant treatments were applied at 26.7 microliters with a pipette and spread with a small brush over 12 square centimeter sections of organdy cloth attached to a flat plastic template containing rectangular openings. The treated cloth covered template was fitted between the K & D module and a lower Plexiglas unit. The lower Plexiglas unit contained shallow surface wells filled with a blood substitute (CDTA and ATP) and covered with a moistened collagen membrane. The blood substitute was heated to 38° C. using water pumped through hose lines attached to the lower units and a water bath supplied with a temperature controlled inversion circulator. Mosquitos were exposed to the treated surfaces by opening sliding doors beneath the modules for 90-second biting counts at five post-treatment time intervals from 1 to 6 hours. Fresh, untreated mosquitos are used for each time interval.
# The testing protocol including the in vitro environment provides a rigorous testing of the repellency of the composition as the mosquitos are confined with a blood meal.
# An unpaired t-test was conducted on the biting counts between lotion as described herein and the control group where there was no treatment applied between the mosquito and the blood well. […] The statistical factors include t=5.8704 where df=16 and a standard error of difference is equal to 0.530. The two-tailed p value is less than 0.0001. The reduction in biting pressure when using the compositions compared to the control group is significant at the 99.99 level of significance.
smiles,measurement,setting,value
"CCN(CC)C(=O)c1cccc(C)c1 [8% DEET, DEET]",No. probing on treated arm,Aedes aegypti mosquitos; 0 hours after application,0
same,% PE,Aedes aegypti mosquitos; 0 hours after application,100.00%
same,Total % PE,Aedes aegypti mosquitos; 0 hours after application,100.00%
same,No. probing on treated arm,Aedes aegypti mosquitos; 1 hour after application,0
same,% PE,Aedes aegypti mosquitos; 1 hour after application,100.00%
same,Total % PE,Aedes aegypti mosquitos; 1 hour after application,100.00%
same,No. probing on treated arm,Aedes aegypti mosquitos; 2 hours after application,1 and 2 and 0
same,% PE,Aedes aegypti mosquitos; 2 hours after application,91.67% and 90.91% and 100.00%
same,Total % PE,Aedes aegypti mosquitos; 2 hours after application,95.00%
same,No. probing on treated arm,Aedes aegypti mosquitos; 3 hours after application,2 and 0
same,% PE,Aedes aegypti mosquitos; 3 hours after application,90.00% and 100.00%
same,Total % PE,Aedes aegypti mosquitos; 3 hours after application,95.35%
same,No. probing on treated arm,Aedes aegypti mosquitos; 4 hours after application,2 and 1 and 0
same,% PE,Aedes aegypti mosquitos; 4 hours after application,91.67% and 94.12% and 100.00%
same,Total % PE,Aedes aegypti mosquitos; 4 hours after application,95.16%
same,No. probing on treated arm,Aedes aegypti mosquitos; 5 hours after application,2 (2×) and 3
same,% PE,Aedes aegypti mosquitos; 5 hours after application,93.10% and 88.89% and 86.96%
same,Total % PE,Aedes aegypti mosquitos; 5 hours after application,90.00%
same,No. probing on treated arm,Aedes aegypti mosquitos; 6 hours after application,10 and 6 and 7
same,% PE,Aedes aegypti mosquitos; 6 hours after application,41.18% and 57.14% and 65.00%
same,Total % PE,Aedes aegypti mosquitos; 6 hours after application,54.90%
same,No. probing on treated arm,Aedes aegypti mosquitos; 7 hours after application,7 and 6 and 9
same,% PE,Aedes aegypti mosquitos; 7 hours after application,36.36% and 50.00% (2×)
same,Total % PE,Aedes aegypti mosquitos; 7 hours after application,46.34%
same,time after application for which 100% protection was provided,"Aedes aegypti mosquitos; arm-in-cage, hourly intervals",1 h
same,time for which over 50% protection was provided,"Aedes aegypti mosquitos; arm-in-cage, hourly intervals",6 h
CCN(CC)C(=O)c1cccc(C)c1 [DEET],biting activity compared with control,[1],no significance difference
same,repellency,[2]; 6 hour time period,87.1%
same,"repellency, average for all five time periods",[2]; average of five post-treatment time intervals,86.52%
same,repellency,"[2]; initial start time of zero, 90-second biting counts, 26.7 microliters on 12 square centimeter cloth",91.9%
